Data on one molecule can be found in patent US9937182B2, “Therapeutic strategies for the treatment of preeclampsia” (UNIVERSITY OF IOWA RESEARCH FOUNDATION, priority 2013, dated 2018).

The subject of the assay is C57Bl/6J female mice. Description: Vasopressin infusion during pregnancy, tail-cuff blood pressure. It is filed as in vivo. Particulars: vasopressin 24 ng/hr s.c. compared to 2.4 ng/hr s.c., P=0.03. On the procedure:
Method: Wildtype C57Bl/6J female mice were chronically infused with varied doses of arginine vasopressin (Sigma-Aldrich), via subcutaneous osmotic minipumps (Alzet), for three days preceding mating, then through gestational day 16. Mice were first acclimated to the restraint devices used for recordings for one week (“week −3”) before data recordings began. Blood pressure was assessed daily for two weeks preceding minipump implantation, through gestational day 16. Blood pressure was measured using tail-cuff plethysmography (Visitech). On any given recording day, the mouse was restrained and lightly warmed throughout the (30 min) recording period. Thirty consecutive 1 min inflation/deflation cycles were performed and successful pressure determinations were averaged within recording period for each mouse. Data sets from individual days with fewer than 10 successful determinations were excluded from analyses. Daily blood pressure values were averaged within animal for each week for statistical comparisons.

Consider `NC(=O)CC[C@@H]1NC(=O)[C@H](Cc2ccccc2)NC(=O)[C@H](Cc2ccc(O)cc2)NC(=O)[C@@H](N)CSSC[C@@H](C(=O)N2CCC[C@H]2C(=O)N[C@@H](CCCN=C(N)N)C(=O)NCC(N)=O)NC(=O)[C@H](CC(N)=O)NC1=O` [Arginine vasopressin], for which the “blood pressure, third week of pregnancy (gestational days 14-16)” value is on record as “increased blood pressure”. The “blood pressure, third week of pregnancy (gestational days 14-16)” value (listed as AVP) is “late-pregnancy increase in blood pressure”.
